Assay results from BigSolDB 2.1.

CC1=NN(c2ccc(C)cc2)C(=O)C1
Settings	solubility (mole fraction)
in 1,4-dioxane, 283.15 K	0.0337
in 1,4-dioxane, 285.65 K	0.0367
in 1,4-dioxane, 288.15 K	0.0399
in 1,4-dioxane, 290.65 K	0.0432
in 1,4-dioxane, 293.15 K	0.047
in 1,4-dioxane, 295.65 K	0.0507
in 1,4-dioxane, 298.15 K	0.0549
in 1,4-dioxane, 300.65 K	0.0591
in 1,4-dioxane, 303.15 K	0.0638
in 1,4-dioxane, 305.65 K	0.0683
in 1,4-dioxane, 308.15 K	0.0737
in 1,4-dioxane, 310.65 K	0.0791
in 1,4-dioxane, 313.15 K	0.0849
in acetonitrile, 278.15 K	0.00534
in acetonitrile, 280.65 K	0.00596
in acetonitrile, 283.15 K	0.00668
in acetonitrile, 285.65 K	0.00746
in acetonitrile, 288.15 K	0.0083
in acetonitrile, 290.65 K	0.00927
in acetonitrile, 293.15 K	0.0104
in acetonitrile, 295.65 K	0.0115
in acetonitrile, 298.15 K	0.0128
in acetonitrile, 300.65 K	0.0142
in acetonitrile, 303.15 K	0.0157
in acetonitrile, 305.65 K	0.0173
in acetonitrile, 308.15 K	0.0192
in acetonitrile, 310.65 K	0.0213
in acetonitrile, 313.15 K	0.0235
in cyclohexane, 283.15 K	0.000488
in cyclohexane, 285.65 K	0.000558
in cyclohexane, 288.15 K	0.000626
in cyclohexane, 290.65 K	0.000714
in cyclohexane, 293.15 K	0.000802
in cyclohexane, 295.65 K	0.000902
in cyclohexane, 298.15 K	0.00102
in cyclohexane, 300.65 K	0.00114
in cyclohexane, 303.15 K	0.00128
in cyclohexane, 305.65 K	0.00142
in cyclohexane, 308.15 K	0.00161
in cyclohexane, 310.65 K	0.00179
in cyclohexane, 313.15 K	0.002
in ethanol, 278.15 K	0.0146
in ethanol, 280.65 K	0.0161
in ethanol, 283.15 K	0.0176
in ethanol, 285.65 K	0.0191
in ethanol, 288.15 K	0.0209
in ethanol, 290.65 K	0.0229
in ethanol, 293.15 K	0.0248
in ethanol, 295.65 K	0.027
in ethanol, 298.15 K	0.0294
in ethanol, 300.65 K	0.0319
in ethanol, 303.15 K	0.0345
in ethanol, 305.65 K	0.0372
in ethanol, 308.15 K	0.0403
in ethanol, 310.65 K	0.0436
in ethanol, 313.15 K	0.0471
in ethyl acetate, 278.15 K	0.0171
in ethyl acetate, 280.65 K	0.0188
in ethyl acetate, 283.15 K	0.0207
in ethyl acetate, 285.65 K	0.0226
in ethyl acetate, 288.15 K	0.0247
in ethyl acetate, 290.65 K	0.0271
in ethyl acetate, 293.15 K	0.0294
in ethyl acetate, 295.65 K	0.032
in ethyl acetate, 298.15 K	0.0349
in ethyl acetate, 300.65 K	0.0378
in ethyl acetate, 303.15 K	0.041
in ethyl acetate, 305.65 K	0.0444
in ethyl acetate, 308.15 K	0.0481
in ethyl acetate, 310.65 K	0.052
in ethyl acetate, 313.15 K	0.0562
in ethylbenzene, 278.15 K	0.0109
in ethylbenzene, 280.65 K	0.012
in ethylbenzene, 283.15 K	0.0132
in ethylbenzene, 285.65 K	0.0146
in ethylbenzene, 288.15 K	0.016
in ethylbenzene, 290.65 K	0.0175
in ethylbenzene, 293.15 K	0.0193
in ethylbenzene, 295.65 K	0.0211
in ethylbenzene, 298.15 K	0.0231
in ethylbenzene, 300.65 K	0.0253
in ethylbenzene, 303.15 K	0.0276
in ethylbenzene, 305.65 K	0.0301
in ethylbenzene, 308.15 K	0.0327
in ethylbenzene, 310.65 K	0.0356
in ethylbenzene, 313.15 K	0.0387
in isopentanol, 278.15 K	0.0303
in isopentanol, 280.65 K	0.0335
in isopentanol, 283.15 K	0.037
in isopentanol, 285.65 K	0.041
in isopentanol, 288.15 K	0.0449
in isopentanol, 290.65 K	0.0492
in isopentanol, 293.15 K	0.0542
in isopentanol, 295.65 K	0.0593
in isopentanol, 298.15 K	0.0646
in isopentanol, 300.65 K	0.0705
in isopentanol, 303.15 K	0.0769
in isopentanol, 305.65 K	0.0835
in isopentanol, 308.15 K	0.0906
in isopentanol, 310.65 K	0.0982
in isopentanol, 313.15 K	0.106
in isopropanol, 278.15 K	0.0116
in isopropanol, 280.65 K	0.0127
in isopropanol, 283.15 K	0.014
in isopropanol, 285.65 K	0.0153
in isopropanol, 288.15 K	0.0168
in isopropanol, 290.65 K	0.0184
in isopropanol, 293.15 K	0.02
in isopropanol, 295.65 K	0.0218
in isopropanol, 298.15 K	0.0238
in isopropanol, 300.65 K	0.0259
in isopropanol, 303.15 K	0.0281
in isopropanol, 305.65 K	0.0305
in isopropanol, 308.15 K	0.033
in isopropanol, 310.65 K	0.0358
in isopropanol, 313.15 K	0.0387
in methanol, 278.15 K	0.0152
in methanol, 280.65 K	0.0168
in methanol, 283.15 K	0.0183
in methanol, 285.65 K	0.02
in methanol, 288.15 K	0.0221
in methanol, 290.65 K	0.024
in methanol, 293.15 K	0.0262
in methanol, 295.65 K	0.0287
in methanol, 298.15 K	0.0312
in methanol, 300.65 K	0.034
in methanol, 303.15 K	0.0367
in methanol, 305.65 K	0.0398
in methanol, 308.15 K	0.0432
in methanol, 310.65 K	0.0468
in methanol, 313.15 K	0.0506
in n-butanol, 278.15 K	0.0188
in n-butanol, 280.65 K	0.0206
in n-butanol, 283.15 K	0.0226
in n-butanol, 285.65 K	0.0247
in n-butanol, 288.15 K	0.0271
in n-butanol, 290.65 K	0.0294
in n-butanol, 293.15 K	0.032
in n-butanol, 295.65 K	0.0349
in n-butanol, 298.15 K	0.0377
in n-butanol, 300.65 K	0.041
in n-butanol, 303.15 K	0.0444
in n-butanol, 308.15 K	0.0518
in n-butanol, 310.65 K	0.056
in n-butanol, 313.15 K	0.0603
in n-propanol, 278.15 K	0.0177
in n-propanol, 280.65 K	0.0194
in n-propanol, 283.15 K	0.0213
in n-propanol, 285.65 K	0.0232
in n-propanol, 288.15 K	0.0254
in n-propanol, 290.65 K	0.0276
in n-propanol, 293.15 K	0.0301
in n-propanol, 295.65 K	0.0326
in n-propanol, 298.15 K	0.0353
in n-propanol, 300.65 K	0.0384
in n-propanol, 303.15 K	0.0414
in n-propanol, 305.65 K	0.0448
in n-propanol, 308.15 K	0.0483
in n-propanol, 310.65 K	0.0522
in n-propanol, 313.15 K	0.0561
in toluene, 278.15 K	0.00985
in toluene, 280.65 K	0.0109
in toluene, 283.15 K	0.012
in toluene, 285.65 K	0.0133
in toluene, 288.15 K	0.0147
in toluene, 290.65 K	0.0161
in toluene, 293.15 K	0.0176
in toluene, 295.65 K	0.0193
in toluene, 298.15 K	0.021
in toluene, 300.65 K	0.023
in toluene, 303.15 K	0.025
in toluene, 305.65 K	0.0273
in toluene, 308.15 K	0.0298
in toluene, 310.65 K	0.0323
in toluene, 313.15 K	0.0351
